Results on four molecules are retold here after patent publication US20240398818A1, “Cardiosafe Antidiabetic Therapy” (priority 2018, published 2024).

Series [1] concerns adult patients with early type 2 diabetes mellitus and increased CV risk or established complications. Nature of the series: Cardiovascular Safety Trial (linagliptin versus glimepiride). The series is classed as in vivo. The procedure: The effect of linagliptin on cardiovascular risk in adult patients with early type 2 diabetes mellitus and increased CV risk or established complications was evaluated in this Cardiovascular Safety Trial, a multi-center, multi-national, randomized, double-blind parallel group trial. The trial compared the risk of experiencing a major adverse cardiovascular event (MACE) between linagliptin and glimepiride when these were added to standard of care (including background therapy with metformin) based on regional standards for HbA1c and CV risk factors. The trial was event driven and patients were followed until at least 631 primary outcome events accrued.
A total of 6033 patients were treated (linagliptin 5 mg=3023; glimepiride 1 mg to 4 mg=3010) and followed for a median of 6.25 years (median time on treatment 5.9 years). Approximately 73% of the study population was Caucasian, 18% was Asian, and 5% was Black. The mean age was 64 years and 60% were male.
At baseline, disease characteristics were balanced. […] The trial population included 2030 (34%) patients ≥70 years of age, 2089 (35%) patients with cardiovascular disease, and 1130 (19%) patients with renal impairment with an eGFR <60 mL/min/1.73 m2 at baseline. Overall, the previous use of diabetes medications was balanced across treatment groups (metformin 83% continued as background therapy, sulfonylurea 28% discontinued prior to randomization), patients on insulin were excluded. The use of medications to reduce cardiovascular risk was also balanced (aspirin 47%, statins 65%, ACE inhibitors or ARBs 74%, beta blockers 39%, and calcium channel blockers 30%).
The primary endpoint in this Cardiovascular Safety Trial was the time to first occurrence of three point (3P) MACE. A major adverse cardiac event was defined as a cardiovascular death or a nonfatal myocardial infarction (MI) or a nonfatal stroke. The statistical analysis plan tested for non-inferiority for the occurrence of 3P MACE. The key secondary endpoint evaluated the composite of treatment sustainability defined as the proportion of patients on study treatment, that maintain glycemic control (HbA1c≤7.0%) without need for additional antidiabetic drug therapy (rescue medication), without any moderate (symptomatic with glucose value <70 mg/dL) or severe (requiring assistance) hypoglycemic episodes, and without >2% weight gain from baseline.
Cardiovascular Outcome Trial of Linagliptin Versus Glimepriride in Type 2 Diabetes—assessing long-term cardiovascular impact of linagliptin versus the sulphonylurea glimepiride in subjects with early type 2 diabetes and increased cardiovascular risk or established complications. […]
Type 2 diabetes patient with insufficient glycemic control (naïve or currently treated (mono or dual therapy) with e.g. metformin and/or an alpha-glucosidase inhibitor (e.g. having HbA1c 6.5-8.5%), or currently treated (mono or dual therapy) with e.g. a sulphonylurea or glinide, with or without metformin or an alpha-glucosidase inhibitor (e.g. having HbA1c 6.5-7.5%)) and increased or high risk of cardiovascular events, e.g. defined as one or more of risk factors A), B), C) and D) indicated below, are randomized* and treated over a lengthy period (e.g. up to 432 weeks) with linagliptin (5 mg, q.d., optionally in combination with one or more other active substances, e.g. such as added to existing antidiabetic background) and compared with patients treated with the sulphonylurea glimepiride (1-4 mg once daily). * Upon randomization, if a patient is on a SU or glinide, this secretagogue therapy is discontinued and replaced with study medication. For patients not on a secretagogue, study medication is added to the existing regimen.
Time to first occurrence of any of the following adjudicated components of the primary composite endpoint: […]

In the next series the test system is patients with T2D. Particulars: compared to placebo; cited from earlier work.
Where [2] appears, read: baseline to Final Visit, all observed cases.
Where [3] appears, read: baseline to Final Visit, observed cases including values after rescue medication.
Setting [4] is: both, human, in vivo, 5.9 years.
Setting [5] is: both, human, in vivo, 6.25 years.
Where [6] appears, read: component of secondary composite.
Where [7] appears, read: from end of titration (16 weeks) to final visit.
[8] abbreviates: median follow-up 6.25 years, listed as glimepiride.

On to `CCC1=C(C)CN(C(=O)NCCc2ccc(S(=O)(=O)NC(=O)N[C@H]3CC[C@H](C)CC3)cc2)C1=O` [Glimepiride], for which, in series [1] (at Final Visit), the “patients with macroalbuminuria (>300 mg/g)” value came to 1.4% and the “patients with microalbuminuria (≥30 to ≤300 mg/g)” value stood at 16.0%. In addition, the “patients with normal UACR (<30 mg/g)” value in series [1] (at baseline and at Final Visit) is reported as 57.7%. For the same molecule, in series [1] (setting [2]), the “FPG, Change from baseline, adjusted mean” value is on record as 19.7 mg/dL and the “HBA1c, Change from baseline, adjusted mean” value came to 0.15%. In series [1] (setting [3]), the “Creatinine, Change from baseline, adjusted mean” value came to 0.09 mg/dL; the “HDL, Change from baseline, adjusted mean” value is listed as 0.3 mg/dL; the “LDL, Change from baseline, adjusted mean” value is -6.5 mg/dL; the “Total cholesterol, Change from baseline, adjusted mean” value is -5.0 mg/dL. Also, in series [1] (setting [3]), the “Triglyceride, Change from baseline, adjusted mean” value came out at 5.2 mg/dL and the “Urinary albumin, Change from baseline, adjusted mean” value stood at 45.2 mg/dL. In series [1] (between Visit 6 and Final Visit), the “third key secondary endpoint of treatment sustainability (on medication, HbA1c≤7.0%, no rescue, no >2% weight gain), responders” value is 14.1%. In series [1] (both, human, in vivo), the “Hospitalization for heart failure (HHF), Incidence Rate per 1000 PY” value is listed as 5.3 per 1000 PY; the “Hospitalization for heart failure (HHF), Number of Subjects” value turned out to be 92; the “Patients with any moderate/severe hypoglycemic episodes, Number of Subjects” value stood at 791; the “Patients with any moderate/severe hypoglycemic episodes, Subjects (%)” value is 27.5%. The “Secondary CV composite (4P-MACE), Incidence Rate per 1000 PY” value in series [1] (both, human, in vivo) is recorded as 23.7 per 1000 PY. Also, in series [1] (setting [4]), the “rate of moderate or severe hypoglycemia” value turned out to be 30.9% and the “severe hypoglycemia (requiring assistance)” value is reported as 2.2%. In series [1] (setting [5]), the “Hospitalization for heart failure (HHF), Subjects (%)” value was 3.1%; the “Premature discontinuation from trial medication due to adverse events” value stood at 17.4%; the “Primary CV composite (3P-MACE), Incidence Rate per 1000 PY” value turned out to be 21.2 per 1000 PY; the “all-cause mortality, incidence rate per 1000 years at risk” value stood at 18.4 per 1000 years at risk. Moreover, in series [1] (setting [5]), the “any adjudicated event (secondary CV endpoint), % of patients” value was 17.8%; the “hospitalisation for heart failure combined with CV death, incidence rate per 1000 years at risk” value amounted to 13.4 per 1000 years at risk; the “hospitalisation for heart failure, incidence rate per 1000 years at risk” value is recorded as 5.3 per 1000 years at risk; the “investigator-reported heart failure AEs, % of patients” value was determined as 5.2%. Moreover, in series [1] (setting [5]), the “investigator-reported heart failure AEs, incidence rate per 1000 years at risk” value stood at 9.0 per 1000 years at risk; the “non-CV death, % of patients” value is on record as 5.6%; the “non-CV death, incidence rate per 1000 years at risk” value is reported as 9.2 per 1000 years at risk; the “proportion of patients with CV death contributing to the 3P-MACE” value is recorded as 4.2%. In series [1] (setting [5]), the “proportion of patients with CV death contributing to the 4P-MACE” value came out at 4.1%, the “proportion of patients with hospitalisation for unstable angina pectoris contributing to the 4P-MACE” value is reported as 1.8%, the “proportion of patients with non-fatal MI contributing to the 3P-MACE” value is on record as 4.6% and the “proportion of patients with non-fatal MI contributing to the 4P-MACE” value is on record as 4.3%. Also, in series [1] (setting [5]), the “proportion of patients with non-fatal stroke contributing to the 3P-MACE” value is 3.4% and the “proportion of patients with non-fatal stroke contributing to the 4P-MACE” value was 3.3%. In series [1] (setting [6]), the “Patients with maintained glycemic control (HbA1c ≤7.0%), Number of Subjects” value was 554; the “Patients with maintained glycemic control (HbA1c ≤7.0%), Subjects (%)” value came out at 18.5%; the “Patients with ≤2% weight gain, Number of Subjects” value is recorded as 699; the “Patients with ≤2% weight gain, Subjects (%)” value was 23.3%. In series [1] (setting [7]), the “Secondary composite of treatment sustainability (on treatment, HbA1c ≤7.0%, no rescue, no moderate/severe hypoglycemic episodes, no >2% weight gain), Number of Subjects” value turned out to be 305 and the “Secondary composite of treatment sustainability (second key secondary endpoint), Subjects (%)” value stood at 10.2%. In series [1] (in vivo), the “first intake of rescue medication, incidence rate per 1000 years at risk” value is given as 115.5 per 1000 years at risk and the “rate of patients who used rescue medication” value is on record as 47.1%. In series [1] (median follow-up 6.25 years), the “All-cause mortality, Incidence Rate per 1000 PY” value is given as 18.4 per 1000 PY; the “All-cause mortality, Number of Subjects” value came to 336; the “All-cause mortality, Subjects (%)” value is “(11.2) %”; the “HHF or CV death, Incidence Rate per 1000 PY” value is on record as 13.4 per 1000 PY. Moreover, in series [1] (median follow-up 6.25 years), the “HHF or CV death, Number of Subjects” value was 234; the “HHF or CV death, Subjects (%)” value is “(7.8) %”; the “Secondary CV composite (cardiovascular death, non-fatal MI, non-fatal stroke and hospitalization for unstable angina; 4P-MACE), Number of Subjects” value worked out at 401. Also, in series [1] (median follow-up 6.25 years, added to standard of care), the “Primary CV composite (cardiovascular death, non-fatal MI, non-fatal stroke; 3P-MACE), Number of Subjects” value is reported as 362. Moreover, in series [1] (setting [8]), the “All-cause mortality, Subjects (%)” value is 12.3% and the “HHF or CV death, Subjects (%)” value was found to be 7.8%. For the same molecule, in series [1] (over time), the “weight change (in words)” value was “initial numerical weight increase”.
For the molecule `N#C[C@@H]1C[C@@H]2C[C@@H]2N1C(=O)[C@@H](N)C12CC3CC(CC(O)(C3)C1)C2` [saxagliptin], in the series on patients with T2D, the “effect on major adverse CV event (MACE) outcomes (in words)” value (from here on “effect on major adverse CV event”) is “neutral effect”.
As for `Cn1c(=O)cc(N2CCC[C@@H](N)C2)n(Cc2ccccc2C#N)c1=O` [alogliptin], in the series with patients with T2D, the “effect on major adverse CV event” value is given as “neutral effect”.
With `N[C@@H](CC(=O)N1CCn2c(nnc2C(F)(F)F)C1)Cc1cc(F)c(F)cc1F` [sitagliptin], the “effect on major adverse CV event” value in the series on patients with T2D is given as “neutral effect”.
